How the values were obtained:
[1] = compared with erythromycin; cited from earlier work
PMN = test: Antimicrobial agent uptake by PMN (bioassay); format: in vitro ADME; conditions: intracellular/extracellular concentration, 1 h

Row | I/E ratio (PMN) | Compound | stability in the presence of acids [1]
1 |  | CC[C@H]1OC(=O)[C@H](C)[C@@H](O[C@H]2C[C@@](C)(OC)[C@@H](O)[C@H](C)O2)[C@H](C)[C@@H](O[C@@H]2O[C@H](C)C[C@H](N(C)C)[C@H]2O)[C@](C)(O)C[C@@H](C)CN(C)[C@H](C)[C@@H](O)[C@]1(C)O [Azithromycin] | more stable than erythromycin
2 | 4.8 | C[C@H]1COc2c(N3CCN(C)CC3)c(F)cc3c(=O)c(C(=O)O)cn1c23 [Levofloxacin] | 
3 | 12.0 | COc1c(N2C[C@@H]3CCCN[C@@H]3C2)c(F)cc2c(=O)c(C(=O)O)cn(C3CC3)c12 [Moxifloxacin] | 
4 | 0.16 | CC1(C)SC2C(NC(=O)Cc3ccccc3)C(=O)N2C1C(=O)O (stereo not shown) [Penicillin G, 3,3-Dimethyl-7-oxo-6-phenylacetylamino-4-thia-1-aza-bicyclo[3.2.0]heptane-2-carboxylic acid] | 

— patent publication US7271154B2, “Antibiotic conjugates” (Merckle GmbH, priority 2002, dated 2007)
